Patent US12083109B2, “Neurokinin antagonists and uses thereof” (California Institute of Technology, priority 2017, dated 2024)
Entries after “also recorded” stand apart in the source; their conditions may differ. Like-named read-outs stand apart in the source and are kept apart here.

Legend:
[1] = target: T1, hM4DREADD in Tac2+ neurons (Homo sapiens, UniProt P08173, A203G/Y113C); test: Tone fear test, CNO silencing of Tac2+ neurons (hM4DREADD); format: in vivo, mouse
T1 construct: host or cells: Tac2+ neurons of Tac2-Cre mice (dBNSTa, DMH or CeA), transduced in vivo with AAV2-EF1a-DIO-hM4D-mCherry
T1 sequence (P08173 1-479 Y113C/A203G): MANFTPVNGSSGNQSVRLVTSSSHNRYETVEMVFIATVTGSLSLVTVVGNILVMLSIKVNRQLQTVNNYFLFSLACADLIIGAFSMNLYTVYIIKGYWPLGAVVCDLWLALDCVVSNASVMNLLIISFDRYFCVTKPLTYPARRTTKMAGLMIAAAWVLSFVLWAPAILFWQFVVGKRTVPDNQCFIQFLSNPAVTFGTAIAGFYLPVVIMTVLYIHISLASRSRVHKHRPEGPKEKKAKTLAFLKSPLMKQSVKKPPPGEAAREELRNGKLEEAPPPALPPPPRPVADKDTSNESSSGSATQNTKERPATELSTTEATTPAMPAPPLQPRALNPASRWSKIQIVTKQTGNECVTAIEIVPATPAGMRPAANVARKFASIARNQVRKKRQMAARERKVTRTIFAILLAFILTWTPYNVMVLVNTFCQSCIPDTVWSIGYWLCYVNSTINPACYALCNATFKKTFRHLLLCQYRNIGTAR
Experimental: The protocol for tone trace fear conditioning was performed as previously described (Cushman et al., 2014; incorporated by reference in its entirety) using fear conditioning boxes previously described in detail (Haubensak et al., 2010; Kunwar et al., 2015; incorporated by reference in their entirety). Briefly, mice were transported in squads of four on a white cart to a novel behavioral testing room containing 4 sound-attenuating fear-conditioning chambers (Med Associates). This “training context” was comprised of flat grid flooring (wired to a shock generator and scrambler for footshock delivery, Med Associates), houselights, and the presence of an internal fan for background noise. Chambers were sprayed with 70% Simple Green solution on the underlying chamber pan to generate a unique contextual scent and chambers were cleaned with 70% EtOH between squads. Trace fear conditioning consisted of a 3 minute baseline period followed by 3 tone-shock trials consisting of a 20 second tone conditional stimulus (CS; 75 dB, 2800 Hz), a 20 second trace interval and a 2 second footshock unconditional stimulus (US; 0.7 mA). The inter-trial interval (ITI) between trials was 60 seconds. Mice remained in the chambers an additional 60 seconds before being transported back to the vivarium. The following day, mice were transported in fresh cardboard boxes to a novel behavioral testing room consisting of 4 distinct fear-conditioning boxes to test for tone fear. […] Freezing behavior during the baseline period as well as during each tone presentation (“during”) and trace interval (“post”) were assessed as previously described (Zelikowsky et al., 2014; incorporated by reference in its entirety) using automated near-infrared video tracking equipment and computer software (VideoFreeze, Med Associates). Shock reactivity (motion, arbitrary units) was measured during the 2 second shock US as well as the 3 seconds immediately following. […]

[2] = target: T1, hM4DREADD in Tac2+ neurons; test: Shock reactivity, CNO silencing of Tac2+ neurons (hM4DREADD); format: in vivo, mouse; details: hM4DREADD in CeA
Experimental: The protocol for tone trace fear conditioning was performed as previously described (Cushman et al., 2014; incorporated by reference in its entirety) using fear conditioning boxes previously described in detail (Haubensak et al., 2010; Kunwar et al., 2015; incorporated by reference in their entirety). Briefly, mice were transported in squads of four on a white cart to a novel behavioral testing room containing 4 sound-attenuating fear-conditioning chambers (Med Associates). This “training context” was comprised of flat grid flooring (wired to a shock generator and scrambler for footshock delivery, Med Associates), houselights, and the presence of an internal fan for background noise. Chambers were sprayed with 70% Simple Green solution on the underlying chamber pan to generate a unique contextual scent and chambers were cleaned with 70% EtOH between squads. […] Freezing behavior during the baseline period as well as during each tone presentation (“during”) and trace interval (“post”) were assessed as previously described (Zelikowsky et al., 2014; incorporated by reference in its entirety) using automated near-infrared video tracking equipment and computer software (VideoFreeze, Med Associates). Shock reactivity (motion, arbitrary units) was measured during the 2 second shock US as well as the 3 seconds immediately following. […]

NK3R = target: T2, NK3R (Homo sapiens, UniProt P29371); details: cited from earlier work; for safety and tolerability in clinical trials: human, Phase I
T2 construct: host or cells: human trial subjects
T2 sequence (P29371 1-465): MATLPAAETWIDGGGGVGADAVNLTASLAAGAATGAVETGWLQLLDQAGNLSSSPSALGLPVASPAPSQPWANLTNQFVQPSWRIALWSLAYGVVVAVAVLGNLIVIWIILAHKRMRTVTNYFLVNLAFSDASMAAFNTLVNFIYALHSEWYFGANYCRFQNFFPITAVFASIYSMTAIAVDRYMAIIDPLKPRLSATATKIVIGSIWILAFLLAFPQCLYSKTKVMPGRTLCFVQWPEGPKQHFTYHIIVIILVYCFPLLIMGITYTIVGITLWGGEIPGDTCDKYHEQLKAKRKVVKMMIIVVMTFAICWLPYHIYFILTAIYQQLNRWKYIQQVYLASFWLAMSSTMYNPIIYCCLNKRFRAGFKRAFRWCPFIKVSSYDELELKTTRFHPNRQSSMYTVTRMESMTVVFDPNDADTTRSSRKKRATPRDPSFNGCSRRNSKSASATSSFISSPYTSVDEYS

| Compound | acute (during) freezing to conditioned tone ([1]; SIS Tac2-Cre mice, hM4DREADD in CeA, CNO 5 mg/kg i.p.) | persistent (post) freezing to conditioned tone ([1]; SIS Tac2-Cre mice, hM4DREADD in dBNSTa, CNO 5 mg/kg i.p.) | tone fear test freezing in mCherry control virus mice ([1]; SIS mice, AAV2-EF1a-DIO-mCherry control virus in dBNSTa (no hM4DREADD), CNO vs vehicle) | SIS-enhanced shock reactivity [2] | efficacy in schizophrenia, bipolar and panic disorder (NK3R; human clinical trials) | efficacy in schizophrenia and major depressive disorder (NK3R; human trials, Phase II/III) | safety and tolerability in clinical trials (NK3R) | safety and tolerability in clinical trials (NK3R; listed as Osanetant) |
| --- | --- | --- | --- | --- | --- | --- | --- | --- |
| C[N+]1([O-])CCN(C2=Nc3cc(Cl)ccc3Nc3ccccc32)CC1 [CNO, clozapine-N-oxide] | blocked; also recorded: suppressed | blocked; also recorded: selectively attenuated | had no effect; also recorded: did not observe any effects; also recorded: no significant effects | suppressed; also recorded: attenuated |  |  |  |  |
| CC(=O)N(C)C1(c2ccccc2)CCN(CCC[C@]2(c3ccc(Cl)c(Cl)c3)CCCN(C(=O)c3ccccc3)C2)CC1 [osanetant, N-(1-{3-[(3R)-1-benzoyl-3-(3,4-dichlorophenyl)piperidin-3-yl]propyl}-4-phenylpiperidin-4-yl)-N-methylacetamide] |  |  |  |  | lack of efficacy | lack of efficacy | safe and well-tolerated | well tolerated; also recorded: exhibited safety |
